This is an account of results in patent US20120178782A1, “COMPOSITIONS AND METHODS FOR TREATING PROLIFERATIVE DISEASES” (priority 2009, published 2012).

The target in series [1] is T1, COX-2 enzyme (Homo sapiens, UniProt P35354).
T1 sequence (P35354 18-604): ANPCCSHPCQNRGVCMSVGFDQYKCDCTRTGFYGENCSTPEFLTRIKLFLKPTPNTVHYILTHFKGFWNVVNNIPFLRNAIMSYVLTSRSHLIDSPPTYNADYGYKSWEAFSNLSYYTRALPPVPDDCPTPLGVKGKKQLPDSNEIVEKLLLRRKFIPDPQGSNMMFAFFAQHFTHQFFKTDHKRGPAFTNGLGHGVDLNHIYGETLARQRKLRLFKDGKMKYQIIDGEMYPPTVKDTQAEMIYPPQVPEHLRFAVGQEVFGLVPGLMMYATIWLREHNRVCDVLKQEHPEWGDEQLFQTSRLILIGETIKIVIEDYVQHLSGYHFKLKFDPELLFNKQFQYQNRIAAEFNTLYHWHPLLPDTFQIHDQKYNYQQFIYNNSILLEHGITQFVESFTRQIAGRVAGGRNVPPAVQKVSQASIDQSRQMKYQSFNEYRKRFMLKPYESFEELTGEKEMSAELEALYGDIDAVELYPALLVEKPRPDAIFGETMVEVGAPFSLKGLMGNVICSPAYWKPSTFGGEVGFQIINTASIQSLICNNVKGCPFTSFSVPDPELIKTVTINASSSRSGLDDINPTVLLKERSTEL
As to conditions: plasma concentrations; cited from earlier work.

The subject of series [2] is MDA-MB-231. As to the kind of experiment: MTT cell proliferation assay, breast cancer cell line MDA-MB-231. It counts as cell-based, human. The settings on record: single inhibitor, 72 hours culture; for minimum inhibitory concentration (cell proliferation): FIG. 1; for minimum proliferation inhibitory concentration: FIG. 1C, 1F. An excerpt: In the experiments described below, the cells used are human breast and colon cancer cell lines. The breast cancer cell lines were obtained from Lombarda Cancer Center, Georgetown University Medical Center. The breast cancer lines are cell lines called […] and Hs578T. These cells show a high rate of proliferation, absence of estrogen receptors, are capable of forming tumors in naked mice and show a highly aggressive phenotype. Both lines are used very frequently as breast cancer models. The colon cancer cell line is the cell line called SW620 that was originally isolated from the lymphatic nodules of a patient with colon adenocarcinoma.
The cells are cultivated in polystyrene culture bottles (Corning, Corning, N.Y.). Both cell lines are kept in culture in DMEM medium (Dulbeco's Modified Tagle Medium, obtained from Gibco, Invitrogen Corporation, NY. USA) and supplemented with 10% fetal bovine serum (FBS) (obtained from PAA, GmbH Laboratories, Pasching, Austria), and supplemented with 100 U/ml of penicillin and 10 μg/ml of streptomycin (Gibco, Invitrogen Corporation, NY, USA) in incubator 37° C. In humidified atmosphere of […]/5% CO2.
There were carried out curves of dose-cell proliferation inhibition response of the human breast cancer cell line MDA-MB-231, with the intent of objectively knowing the minimum concentrations that produce a proliferation inhibiting effect.
In all the cases, the cell proliferation measurement was carried out using the MTT techniques of incorporation of Bromodeoxyuridine (BrdUr) (5-bromine-2′-deoxyuridine of Elisa Roche Applied Science, Mannheim, Germany) and the violet crystal coloration technique.
The cells were cultivated in microplates (Orange Scientific) of 96 cavities in the amount of 4,000 cells per cavity in 200 ul of DMEM supplemented with FCS supplemented with 100 U/ml of penicillin and 10 ug/ml of streptomycin in incubator at 37° C. with atmosphere of […]/5% CO2. A the end of this period, the cells were cultivated for another 24 hours in culture medium in the absence of serum. At the end of this period, culture medium with scram in the absence (control) or presence of different inhibitors was added, in accordance with the following:
The cells were kept in culture for 72 hours. Then, thiazol blue bromide reagent was added (3-(4,5-dimethylthiazol-[…])-2,5-diphenyltetrazolium bromide). It was incubated for 180 minutes at 37° C. After this time, the culture medium was discarded and the formazan crystals formed were dissolved with 200 ul of dimethylsulfoxide. The microplates were agitated for 15 minutes to dilute the crystals of homogeneous form, and absorbance was determined at 620 nm in a plate reader, “Biotra II, plate reader,” of Amersham Biosciences Inc., Piscataway, N.J., USA.

Series [3] concerns cells of the microvascular endothelium. As to conditions: per se inhibitory doses of 75 μM; Kakiuchi-Kiyota et al. 2009; cited from earlier work.
Series [4] deals with cell growth. The settings on record: Min Yao et al. 2005; cited from earlier work.

Converted amounts (≈) assume the structure as drawn.

Regarding `CC(=O)Oc1ccccc1C(=O)O` [aspirin, acetylsalicylic acid], the “plasma concentration inhibiting COX-2 enzyme” value in series [1] is given as “greater than 0.5 mM”.

On to `CC(c1cc2ccccc2s1)N(O)C(N)=O` (stereo not shown) [Zileuton], for which the “minimum inhibitory concentration (cell proliferation)” value (“minimum inhibitory concentration” below) in series [2] stood at 500 µM (≈ 118 µg/mL).

As for `Cc1ccc(-c2ncc(Cl)cc2-c2ccc(S(C)(=O)=O)cc2)cn1` [Etoricoxib], the “minimum proliferation inhibitory concentration” value in series [2] worked out at 1000 nM.

In the case of `CC1=C(C)C(=O)C(CCCCC#CCCCC#CCO)=C(C)C1=O` [AA861, Docebenone], the “minimum inhibitory concentration” value in series [2] stood at 10 µM (≈ 3.26 µg/mL).

`CN(CCOc1ccc(CC2SC(=O)NC2=O)cc1)c1ccccn1` (stereo not shown) [Rosiglitazone]: in series [2], the “minimum inhibitory concentration” value turned out to be 75 µM (≈ 26.8 µg/mL). Regarding `Cc1c(C)c2c(c(C)c1O)CCC(C)(COc1ccc(CC3SC(=O)NC3=O)cc1)O2` (stereo not shown) [Troglitazone], the “toxic effects on endothelial cells” value in series [3] is “toxic effects were described”. The “minimum inhibitory concentration” value in series [2] is 75 µM (≈ 33.1 µg/mL). For the molecule `CC(C)Cc1ccc(C(C)C(=O)O)cc1` (stereo not shown) [Ibuprofen], in series [4], the “dose for cell growth inhibition” value is on record as “at least 500 μM”. The “minimum inhibitory concentration” value in series [2] is 500 µM (≈ 103 µg/mL). In the case of `COc1cc(C(=O)NS(=O)(=O)c2ccccc2C)ccc1Cc1cn(C)c2ccc(NC(=O)OC3CCCC3)cc12` [Zafirlukast], in series [2], the “minimum proliferation inhibitory concentration” value is reported as more than 100 nM.
